This is an account of results in patent US20110281928A1, “Process for the preparation of zofenopril and its pharmaceutically acceptable salts thereof” (GLENMARK GENERICS LTD, priority 2009, published 2011).

The structures appear in SMILES notation. Where a name gives a salt, the structure may show the parent alone.

Type in all cases: physicochemical
A short description of series [1]: Specific surface area by B.E.T. nitrogen absorption. The source says:
Specific surface area is defined in units of square meters per gram (m^2/g). It is usually measured by nitrogen absorption analysis. In this analysis, nitrogen is absorbed on the surface of the substance. The amount of the absorbed nitrogen (as measured during the absorption or the subsequent desorption process) is related to the surface area via a formula known as the B. ET. formula. BET Surface Area Analyser Model SAA-2000, specifically designed for BET_Surface Area Analysis.
The Specific Surface Area is expressed in meters square per gram of a sample. It is a measure of area covered by Nitrogen gas adsorbed in a mono-layer form.

A short description of another series: Bulk and tapped density. The note with it: Example 5 product.
Series [2] in a line: Particle size distribution by laser diffraction. An excerpt:
The D10, D50, and D90 values are useful ways for indicating a particle size distribution. D90 is a size value where at least 90 percent of the particles have a size smaller than the stated value. Likewise D10 refers to 10 percent of the particles having a size smaller than the stated value. D50 refers to at least 50 percent of the particles having a size smaller than the stated value and D [4,3] value refers to a mean particle size. Methods for determining D10, D50, D90 and D [4,3] include those using laser light diffraction with equipment sold by Malvern Instruments ltd.
As used herein, “crystalline particles” means any combination of single crystals, aggregates and agglomerates. As used herein “Particle Size Distribution (P.S.D.)” means the cumulative volume size distribution of equivalent spherical diameters as determined by laser diffraction at 1 bar dispersive pressure in a SympatecHelos equipment. “Mean particle size distribution, i.e., d (0.5)” correspondingly, means the median of said particle size distribution.

A short description of series [3]: Solubility in organic solvents (statement).

For the compound `C[C@H](CSC(=O)c1ccccc1)C(=O)N1C[C@@H](Sc2ccccc2)C[C@H]1C(=O)O` [zofenopril calcium, (4S)-N-[3-(Benzoylsulfanyl)-2(S)-methylpropionyl]-4-(phenylsulfanyl)-L-proline calcium salt], the “Specific surface area by B.E.T” value in series [1] (Example 5 product) is on record as 14.13 m^2/g. The “Specific surface area, as measured by B.E.T.” value in series [1] (crystal particles, description) is given as “about 14.13 m^2/gm”. In the series “Bulk and tapped density”, the “Bulk density (Tapped)” value amounted to 0.282 gm/ml and the “Bulk density (untapped)” value was 0.201 gm/ml. In series [2] (Example 5 product), the “Particle size distribution d 10” value was 3.902 μ, the “Particle size distribution d 50” value stood at 12.088 μ and the “Particle size distribution d90” value came to 33.858 μ. Moreover, in series [2] (crystal particles, description), the “Mean particle size distribution d (0.5)” value is 12.088 μm, the “Particle size distribution d (0.1)” value stood at 3.902 μm and the “Particle size distribution d (0.9)” value was 33.858 μm. In addition, the “Solubility in organic solvents” value in series [3] is “insoluble”.
